This note sets out measurements from patent US20260070921A1, “COMPOUND, ENDOPLASMIC RETICULUM STRESS INHIBITOR, PHARMACEUTICAL PRODUCT, OPHTHALMIC AGENT, EYE DROPS, COMPOSITION, AND METHOD FOR PRODUCING COMPOUND” (KYOTO UNIVERSITY, priority 2022, published 2026).

Series [1] is described as follows: Confocal microscopy of Nile red-stained assemblies. It is filed as physicochemical. Particulars: cell culture medium, prolonged incubation (>5 hr). The procedure: Doping with the environmentally sensitive dyes, Nile red and 9-(2,2-dicyanovinyl)julolidine (DCVJ), enabled detection of assembly formation by fluorescence spectroscopy and confocal microscopy. The relative amount of self-organization of compound 1 was quantified using DCVJ to form a DMEM-normalized dose-organization curve (FIG. 24). Fitting with a sigmoid curve gave an apparent half-maximal assembly concentration (AC50) of 29.7 μM for the molecules of compound 1. […] In confocal microscopy, assemblies of compound 1 stained with Nile red were readily detectable in PBS (pH of 7.4). In the cell culture medium, assemblies of compound 1 stained with Nile red were initially not visible due to the small particle size, but prolonged incubation (>5 hr) led to the formation of larger detectable assemblies (>1 μm in diameter).

The test system of series [2] is pIRE1/IRE and p-eIF2/eIF2. Briefly: Endoplasmic reticulum stress pathway activation in myopic sclera. It is filed as in vivo, mice. The conditions noted are these: eye drop 3 weeks. The text has this:
Thus, the attachment of a minus lens may enhance autophagy, and autophagy was not shown to be complete in the control group. […] This is thought to be the mechanism by which myopia progression is inhibited.

A short description of another series: Solubility. Particulars: in DMSO. It is filed as physicochemical.
Another series has as its system Atg5, and Atg12. Briefly: Western blotting of sclera after myopia induction, Atg5/Atg12. It is filed as in vivo, mice. Particulars: eye drop 3 weeks. As to the method: (§1) A −30 diopter (unit of refractive index: D) lens was attached to the right eye of 3-week-old male C57BL6J mice, while only a lens frame was attached to the left eye, which served as a control eye. The lenses were worn for three weeks, and the refractive index and axial length of eyes were measured before and after attachment of the lenses. Concurrently with myopia induction, an eye drop, which is a 0.025 solution of X441A in PBS, was administered by instillation once a day every day. PBS was administered by eye drop to the control group (group administered with PBS). After 3 weeks of myopia induction and eye drop administration, the eyeballs were enucleated from the mice, and the sclera was isolated. Then, western blotting was performed to analyze the expression levels of p62, Atg5, and Atg12 in each group.
(§2) After 3 weeks of myopia induction and eye drop administration, the eyeballs were enucleated from the mice, and the sclera was isolated. Then, western blotting was performed to analyze the expression levels of p62, Atg5, and Atg12 in the group administered with X441A and the group administered with PBS.
(In general: Immunoblotting shows a protein as a band on a membrane.)

For another series, the system named is C57BL6J mice. Briefly: Lens-induced myopia in mice, eye drops. It is filed as in vivo. The conditions noted are these: −30 D lens 3 weeks, eye drop once a day. The procedure:
as §1

The subject of series [3] is HEK293 cells. Briefly: Cell viability assay without ER stress inducer (cytotoxicity, WST-8). The class given is cell-based. Particulars: 64 h. As to the method:
HEK293 cells were treated with compound 1, compound 4, compound 5, or compound 6 (25 μM or 100 μM, respectively) for 64 hours. The vertical axis represents relative cell viability (unit: %), and the horizontal axis represents concentration (unit: μM). Cell viability was measured using a WST-8 cell counting kit. Error bars represent s.d. (n=3).
FIG. 31 is a graph showing the results of a cell viability assay using bafilomycin A1. HEK293 cells were treated with bafilomycin A1 in DMEM (10% FBS) for 48 hours. The vertical axis represents relative cell viability (unit: %), and the horizontal axis represents the concentration of bafilomycin A1 (unit: μM). Cell viability was measured using a WST-8 cell counting kit. Error bars represent s.d. (n=3).
FIG. 32 is a graph showing the results of a cell viability assay using MG132. HEK293 cells were treated with MG132 in DMEM (10% FBS) for 48 hours. The vertical axis represents relative cell viability (unit: t), and the horizontal axis represents the concentration of MG132 (unit: μM). Cell viability was measured using a WST-8 cell counting kit. Error bars represent s.d. (n=3).
The term “Efficacy” denotes ER (endoplasmic reticulum) stress inhibition activity. The term “Toxicity” denotes cytotoxicity. In the ER stress inhibition activity (Efficacy), “−” indicates no activity, “+” indicates weak activity, and “++” indicates strong activity. In addition, “XD7” in Table 1 below represents compound 6. That is, XD7 and compound 6 are the same compound.
(In general: Tetrazolium assays rely on reduction of a dye to a coloured formazan, in cell work by metabolically active cells.)

Series [4] in a line: Reversibility of self-assembly on dilution (DCVJ fluorescence). The class given is physicochemical. The conditions noted are these: dilution of preformed assemblies. As to the method:
Compound 1 (100 μM) was incubated in DMEM (10% FBS, 0.5, DMSO) at 25° C. for 1 hour to allow it to form self-assemblies. A solution of pre-formed assemblies of compound 1 was diluted in various ratios with DMEM (10% FBS, 0.5% DMSO). All samples contained 1.0 μM DCVJ, an environmentally sensitive dye, to quantify the amount of self-assembly of compound 1 by fluorescence. If the self-assembly is irreversible (upper graph in the frame), the fluorescence signal is linear with respect to the amount of the compound. […] In the two graphs within the frame, the vertical axis represents fluorescence, and the horizontal axis represents concentration. […] A time-dependent decrease in fluorescence at 25 μM (as a monomer of compound 1) was also observed. Error bars represent s.d. (n=3).

The test system of a further series is p62. Briefly: Western blotting of sclera after myopia induction, p62. Particulars: eye drop 3 weeks. It is filed as in vivo, mice. As to the method: as §1, §2
Series [5] deals with HEK293 cells. Briefly: Tunicamycin assay (cell viability under ER stress, WST-8). Particulars: for EC50: Homo sapiens, HEK293, read-out: EC50 (dose-response curve, Hill equation); for EC50 / Concentration at which activity was shown: tunicamycin 5.0 μg/mL 48 h. Set-up: key to Efficacy 5 μM (ER stress inhibition activity) / Efficacy 25 μM (ER stress inhibition activity) / Efficacy 100 μM (ER stress inhibition activity): “−” indicates no activity; “+” indicates weak activity; “++” indicates strong activity. The class given is cell-based. The procedure: HEK293 cells were seeded in 96-well plates ([…]) and incubated at 37° C. for 2 hours. The medium was then replaced with 100 μL of DMEM ([…]) containing self-assembling chemicals (20 or more compounds, including compounds of the present disclosure) and 1% DMSO. After incubation with any one of compounds 1 to 6 at a given concentration for 12 to 18 hours, HEK293 cells were treated with tunicamycin (5 μg/mL) or thapsigargin (10 μM) for 48 hours, and cell viability was measured using a WST-8 cell counting kit (Dojindo Laboratories).
Produced compounds XD8 to XD28 were subjected to a tunicamycin assay in the same manner as in Examples 1 to 9. Specifically, HEK293 cells were first seeded in a 96-well plate (1×10^4 cells/well) and incubated at 37° C. for 2 hours. The medium was then replaced with 100 μL of DMEM (10% FBS) containing a self-assembling chemical (each of compounds XD8 to XD28) and […]. After incubation with any of compounds XD8 to XD28 at a concentration of 5.0 μM, 25 μM, or 100 μM for 12 to 18 hours, HEK293 cells were treated with tunicamycin (5 μg/mL) for 48 hours, followed by measuring cell viability by using a WST-8 cell counting kit (Dojindo Laboratories).

The structures appear in SMILES notation.

For the compound `NS(=O)(=O)c1ccc(Nc2ccn3c(n2)nc(=O)c2sc4cc(F)ccc4c23)cc1` [compound 1], the “Diameter of detectable assemblies” value in series [1] is on record as over 1 μm. Also, the “Activation of the endoplasmic reticulum stress pathway caused by myopia induction” value in series [2] was “did not occur”. Also, in “Solubility”, the Solubility result is given as “readily soluble”. Moreover, the “Increase in expression of At5/Atg12” value with Atg5, and Atg12 is on record as “enhanced regardless of the administration of X441A”. In addition, in the series with C57BL6J mice, the “Axial length elongation of eyes” value is on record as “such changes were not observed” and the “Myopic shift in refractive index” value is on record as “such changes were not observed”. In addition, the Cytotoxicity result in the series on HEK293 cells [3] (up to 100 μM) is “no obvious cytotoxicity”. Also, in series [4], the Reversibility of self-assembly entry is on record as “disintegration of the particles”. Moreover, the “Expression level of p62” value with p62 is given as “decreased”. Besides, the “Cell viability under ER stress” value in the series on HEK293 cells [5] (100 μM pre-incubation 12 h, then thapsigargin 10 μM or tunicamycin 5.0 μg/mL 48 h) is reported as “enhanced cell viability under ER stress conditions”. Also, in the series on HEK293 cells [5], the EC50 (in general, the concentration that produces a half-maximal response) stood at 38.1 µM and the “Concentration at which activity was shown” value was determined as 100 µM.
With `COc1ccc2c(c1)sc1c(=O)nc3nc(Nc4ccc(S(N)(=O)=O)cc4)ccn3c12` [compound 6], the Cytotoxicity result is “no obvious cytotoxicity” with HEK293 cells [3] (at 25 μM) and “slightly reduced cell viability” in the series with HEK293 cells [3] (at 100 μM). In addition, in the series on HEK293 cells [5], the EC50 was determined as 13.7 µM. Further, in the series with HEK293 cells [5] (compound 5 μM 12 to 18 h, then tunicamycin 5 μg/mL 48 h), the “Efficacy 5 μM (ER stress inhibition activity)” value is “−”. The “Efficacy 25 μM (ER stress inhibition activity)” value in the series with HEK293 cells [5] (compound 25 μM 12 to 18 h, then tunicamycin 5 μg/mL 48 h) is “++”. The “Efficacy 100 μM (ER stress inhibition activity)” value in the series on HEK293 cells [5] (compound 100 μM 12 to 18 h, then tunicamycin 5 μg/mL 48 h) was “++”. Also, the “Concentration at which activity was shown” value in the series on HEK293 cells [5] turned out to be 25 µM.
